Data from patent publication US20100063047A1 (KALYPSYS, INC., priority 2008, published 2010).

Target: T1, human H1 (Homo sapiens, UniProt P35367)
T1 construct: host or cells: CHO-K1, also expressing mitochondrion-targeted aequorin
Test: In vitro histamine H1 receptor cell-based aequorin bioluminescence antagonist assay
Conditions: CHO-K1 cells expressing human H1 and aequorin; histamine at EC80; read-out: H1 Antagonist EC50
Protocol: In vitro Histamine Receptor Cell-Based Assays
The cell-based assays utilize an aequorin dependent bioluminescence signal. Doubly-transfected, stable CHO—K1 cell lines expressing human H1 or H4, mitochondrion-targeted aequorin, and (H4 only) human G protein Gα16 are obtained from Perkin-Elmer. Cells are maintained in F12 (Ham's) growth medium, containing 10% (vol./vol.) fetal bovine serum, penicillin (100 IU/mL), streptomycin (0.1 mg/mL), zeocin (0.25 mg/mL) and geneticin (0.40 mg/mL). Cell media components are from Invitrogen, Inc. One day prior to assay, the growth medium is replaced with the same, excluding zeocin and geneticin.
For assay preparation, growth medium is aspirated, and cells are rinsed with calcium-free, magnesium-free phosphate-buffered saline, followed by two to three minute incubation in Versene (Invitrogen, Inc.) at 37° C. Assay medium (DMEM:F12 [50:50], phenol-red free, containing 1 mg/mL protease-free bovine serum albumin) is added to collect the released cells, which are then centrifuged. The cell pellet is re-suspended in assay medium, centrifuged once more, and re-suspended in assay medium to a final density of 5×10^6 cells/mL. Coelenterazine-h dye (500 μM in ethanol) is added to a final concentration of 5 μM, and mixed immediately. The conical tube containing the cells is then wrapped with foil to protect the light-sensitive dye. The cells are incubated for four hours further at room temperature (approximately 21° C.) with end-over-end rotation to keep them in suspension.
Just before assay, the dye-loaded cells are diluted to 0.75×10^6 cells/mL (H1 receptor) or 1.5×10^6 cells/mL (H4 receptor) with additional assay medium. Cells are dispensed to 1536 well micro-titer plates at 3 μL/well. To assay receptor antagonism, 60 nl of 100× concentration test compounds in 100% dimethyl sulfoxide (DMSO) are dispensed to the wells, one compound per well, by passive pin transfer, and the plates are incubated for 15 minutes at room temperature. […] The pipette dispenses 3 μL/well of agonist (histamine, at twice the final concentration, where final concentration is a previously determined EC80) in assay medium, with concurrent bioluminescence detection. Agonist activity of test compounds is excluded by separate assays that measure response to test compounds immediately, without added histamine agonist.
CCD image capture on the Lumilux includes a 5 second baseline read prior to agonist addition, and generally a 40 second read per plate after agonist addition. A decrease in bioluminescence signal (measured either as area-under-the-curve, or maximum signal amplitude minus minimum signal amplitude) correlates with receptor antagonism in a dose dependent manner. The negative control is DMSO lacking any test compound. For antagonist assays, the positive controls are diphenhydramine (2-Diphenylmethoxy-N,N-dimethylethylamine, 10 μM final concentration, H1 receptor) or JNJ7777120 (1-[(5-Chloro-1H-indol-2-yl)carbonyl]-4-methyl-piperazine, 10 μM final concentration, H4 receptor). Efficacy is measured as a percentage of positive control activity.

T1 sequence (P35367 whole entry): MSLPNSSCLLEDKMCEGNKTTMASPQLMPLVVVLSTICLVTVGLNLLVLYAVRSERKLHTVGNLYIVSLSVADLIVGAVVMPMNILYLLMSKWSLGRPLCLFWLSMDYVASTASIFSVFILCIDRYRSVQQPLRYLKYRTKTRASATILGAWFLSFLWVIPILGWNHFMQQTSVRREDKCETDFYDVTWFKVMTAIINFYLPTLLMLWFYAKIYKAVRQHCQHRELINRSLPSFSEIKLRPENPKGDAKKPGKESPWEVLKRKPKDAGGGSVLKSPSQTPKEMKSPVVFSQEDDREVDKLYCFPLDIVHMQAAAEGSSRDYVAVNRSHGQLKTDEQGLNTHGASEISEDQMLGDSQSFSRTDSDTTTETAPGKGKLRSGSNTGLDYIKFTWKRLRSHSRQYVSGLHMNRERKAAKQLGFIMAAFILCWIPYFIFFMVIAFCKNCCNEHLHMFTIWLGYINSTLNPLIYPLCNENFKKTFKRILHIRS

Structure (SMILES)	EC50
COc1ccc(CCNc2nc(C)nc3sc(C)c(C)c23)cc1OC [Example 296, N-(3,4-dimethoxyphenethyl)-2,5,6-trimethylthieno[2,3-d]pyrimidin-4-amine]	> 10 µM
Cc1csc2ncnc(NCc3ccc(C(F)(F)F)cc3)c12 [Example 164, 5-methyl-N-{[4-(trifluoromethyl)phenyl]methyl}thieno[2,3-d]pyrimidin-4-amine]	> 10 µM
CCOC(=O)C1CCN(c2ncnc3scc(C)c23)CC1 [Example 44, ethyl 1-{5-methylthieno[2,3-d]pyrimidin-4-yl}piperidine-4-carboxylate]	> 10 µM
Cc1csc2ncnc(NC3CCCCC3)c12 [Example 76, N-cyclohexyl-5-methylthieno[2,3-d]pyrimidin-4-amine]	> 10 µM
Cc1csc2ncnc(NC(=O)Cc3ccc(Cl)cc3)c12 [Example 31, 2-(4-chlorophenyl)-N-(5-methylthieno[2,3-d]pyrimidin-4-yl)acetamide]	> 10 µM
Cc1sc2ncnc(N3CCC(C(=O)OCc4ccc(C#N)cc4)CC3)c2c1C [Example 306, 4-cyanobenzyl 1-(5,6-dimethylthieno[2,3-d]pyrimidin-4-yl)piperidine-4-carboxylate]	> 10 µM
Cc1cccc(N2CCN(c3ncnc4scc(C)c34)CC2C)c1 (stereo not shown) [Example 255, 2-methyl-1-(3-methylphenyl)-4-{5-methylthieno[2,3-d]pyrimidin-4-yl}piperazine]	> 10 µM
c1nc(NCc2ccc(CN3CCOCC3)cc2)c2c3c(sc2n1)CCC3 [Example 309]	> 10 µM
Cc1csc2ncnc(NCCc3cccc(Cl)c3)c12 [Example 149, N-[2-(3-chlorophenyl)ethyl]-5-methylthieno[2,3-d]pyrimidin-4-amine]	> 10 µM
Cc1csc2ncnc(N3CCN(c4ccc(C(F)(F)F)cc4)CC3)c12 [Example 287, 1-{5-methylthieno[2,3-d]pyrimidin-4-yl}-4-[4-(trifluoromethyl)phenyl]piperazine]	> 10 µM
Cc1ccc(CNc2ncnc3scc(C)c23)cc1 [Example 100, 5-methyl-N-[(4-methylphenyl)methyl]thieno[2,3-d]pyrimidin-4-amine]	> 10 µM
Cc1csc2ncnc(NCC(C)c3ccccc3)c12 (stereo not shown) [Example 119, 5-methyl-N-(2-phenylpropyl)thieno[2,3-d]pyrimidin-4-amine]	> 10 µM
Cc1csc2ncnc(NC3CCCC3)c12 [Example 65, N-cyclopentyl-5-methylthieno[2,3-d]pyrimidin-4-amine]	> 10 µM
Cc1csc2ncnc(NCc3ccccc3Cl)c12 [Example 130, N-[(2-chlorophenyl)methyl]-5-methylthieno[2,3-d]pyrimidin-4-amine]	> 10 µM
Cc1csc2ncnc(NCC(C)c3ccccc3)c12 (stereo not shown) [Example 116, 5-methyl-N-(2-phenylpropyl)thieno[2,3-d]pyrimidin-4-amine]	> 10 µM
Cc1csc2ncnc(NCc3ccc(Cl)cc3)c12 [Example 131, N-[(4-chlorophenyl)methyl]-5-methylthieno[2,3-d]pyrimidin-4-amine]	> 10 µM
COc1cccc(CNc2ncnc3scc(C)c23)c1 [Example 125, N-[(3-methoxyphenyl)methyl]-5-methylthieno[2,3-d]pyrimidin-4-amine]	> 10 µM
Cc1csc2ncnc(NCc3cccs3)c12 [Example 87, 5-methyl-N-(thiophen-2-ylmethyl)thieno[2,3-d]pyrimidin-4-amine]	> 10 µM
Cc1csc2ncnc(N[C@@H](C)c3ccccc3)c12 [Example 96, 5-methyl-N-[(1S)-1-phenylethyl]thieno[2,3-d]pyrimidin-4-amine]	> 10 µM
COC(=O)C1CCN(c2ncnc3scc(C)c23)CC1 [Example 224, methyl 1-{5-methylthieno[2,3-d]pyrimidin-4-yl}piperidine-4-carboxylate]	> 10 µM

Continued, values first:

EC50	Structure (SMILES)
> 10 µM	Cc1ccc(CNc2ncnc3scc(C)c23)cc1C [Example 118, N-[(3,4-dimethylphenyl)methyl]-5-methylthieno[2,3-d]pyrimidin-4-amine]
> 10 µM	CCC(C)CNc1ncnc2scc(C)c12 (stereo not shown) [Example 67, 5-methyl-N-(2-methylbutyl)thieno[2,3-d]pyrimidin-4-amine]
> 10 µM	COCC(C)n1c(C)cc(C(=O)CSc2ncnc3sc(C)c(C)c23)c1C (stereo not shown) [Example 303, 2-(5,6-dimethylthieno[2,3-d]pyrimidin-4-ylthio)-1-(1-(1-methoxypropan-2-yl)-2,5-dimethyl-1H-pyrrol-3-yl)ethanone]
> 10 µM	Cc1csc2ncnc(NCCc3cccc(F)c3)c12 [Example 18]
> 10 µM	Cc1csc2ncnc(N3CCN(C(=O)OC(C)(C)C)CC3)c12 [Example 250, tert-butyl 4-{5-methylthieno[2,3-d]pyrimidin-4-yl}piperazine-1-carboxylate]
> 10 µM	Cc1ccc(CCNc2ncnc3scc(C)c23)cc1 [Example 19]
> 10 µM	Cc1csc2ncnc(NCc3ccc(C(C)C)cc3)c12 [Example 140, 5-methyl-N-{[4-(propan-2-yl)phenyl]methyl}thieno[2,3-d]pyrimidin-4-amine]
> 10 µM	Cc1csc2ncnc(NCCC(C)C)c12 [Example 69, 5-methyl-N-(3-methylbutyl)thieno[2,3-d]pyrimidin-4-amine]
> 10 µM	CCC(CO)Nc1ncnc2scc(C)c12 (stereo not shown) [Example 72, 2-({5-methylthieno[2,3-d]pyrimidin-4-yl}amino)butan-1-ol]
> 10 µM	COc1cccc(CCNc2ncnc3scc(C)c23)c1 [Example 16, [2-(3-Methoxyphenyl)ethyl](5-methylthiopheno[3,2-e]pyrimidin-4-yl)amine]
> 10 µM	Cc1csc2ncnc(NC3CCCC(C)C3)c12 (stereo not shown) [Example 41, 5-methyl-N-(3-methylcyclohexyl)thieno[2,3-d]pyrimidin-4-amine]
> 10 µM	Cc1csc2ncnc(N3CCC(N(C)C(=O)OC(C)(C)C)C3)c12 (stereo not shown) [Example 270, tert-butyl N-methyl-N-(1-{5-methylthieno[2,3-d]pyrimidin-4-yl}pyrrolidin-3-yl)carbamate]
> 10 µM	Cc1csc2ncnc(NC(C)CCCC(C)C)c12 (stereo not shown) [Example 108, 5-methyl-N-(6-methylheptan-2-yl)thieno[2,3-d]pyrimidin-4-amine]
> 10 µM	Cc1csc2ncnc(NC3CCCCCC3)c12 [Example 90, N-cycloheptyl-5-methylthieno[2,3-d]pyrimidin-4-amine]
> 10 µM	COCC(C)Nc1ncnc2scc(C)c12 (stereo not shown) [Example 71, N-(1-methoxypropan-2-yl)-5-methylthieno[2,3-d]pyrimidin-4-amine]
> 10 µM	Cc1csc2ncnc(NCCC(c3ccccc3)c3ccccc3)c12 [Example 176, N-(3,3-diphenylpropyl)-5-methylthieno[2,3-d]pyrimidin-4-amine]
> 10 µM	COc1ccc(CCNc2ncnc3sccc23)cc1 [Example 48, N-[2-(4-methoxyphenyl)ethyl]thieno[2,3-d]pyrimidin-4-amine]
> 10 µM	CCC1CCC(Nc2ncnc3scc(C)c23)CC1 (stereo not shown) [Example 22, (4-Ethylcyclohexyl)(5-methylthiopheno[3,2-e]pyrimidin-4-yl)amine]
> 10 µM	CC(=O)c1ccc(N2CCN(c3ncnc4scc(C)c34)CC2)cc1 [Example 271, 1-[4-(4-{5-methylthieno[2,3-d]pyrimidin-4-yl}piperazin-1-yl)phenyl]ethan-1-one]
> 10 µM	Cc1csc2ncnc(NCc3cccc(F)c3)c12 [Example 102, N-[(3-fluorophenyl)methyl]-5-methylthieno[2,3-d]pyrimidin-4-amine]
> 10 µM	Cc1csc2ncnc(N(CCc3ccccc3)Cc3ccccc3)c12 [Example 277, N-benzyl-5-methyl-N-(2-phenylethyl)thieno[2,3-d]pyrimidin-4-amine]
> 10 µM	Cc1csc2nccc(NCCc3ccc(Cl)cc3)c12 [Example 36, N-(4-chlorophenethyl)-3-methylthieno[2,3-b]pyridin-4-amine]
> 10 µM	Cc1csc2ncnc(NCCCN3CCOCC3)c12 [Example 136, 5-methyl-N-[3-(morpholin-4-yl)propyl]thieno[2,3-d]pyrimidin-4-amine]
